Test results as given in US20200323797A1, “Treatment of Obesity-related Conditions” (INSTITUTO DE MEDICINA MOLECULAR, priority 2017, published 2020).
“And” between values parts separate entries of the source, which are not always exact repeats. Equal entries are not always repeated. Structures can show the parent of a compound that is named as a salt.

Columns and labels:
[1] = system: LSL-DTR (Control) and TH-cre; LSL-DTR (Symp) mice; experiment: High fat diet challenge in Control and sympathectomized (Symp) mice, 6 weeks; format: in vivo, mouse; details: for BW gain: 6 weeks HFD, 0.12 mol/kg daily IP; for Locomotor activity, total distance traveled: 10-min video-tracking, 1 h post-injection; for Plasma Glycerol levels: 2 h post-injection; for Food intake: HFD
Description: For detailed characterization refer to Pereira et al. 2017(52). Briefly, TH-cre; LSL-DTR mice were used for this experiment and LSL-DTR mice were used as controls. PEGylated Diphtheria Toxin (PEGyDT) was administered once a day for 8 consecutive days (25 ng/g of BW, IP injections). All following experiments were performed at least 24 h post the last injection.
(§1) Blood glucose was measured using a glucometer (Accu-Check, Roche). Analysis of Insulin, Triglycerides, Glycerol and FFA levels in plasma as performed using Mouse Ultrasensitive Insulin ELISA (Alpco), Triglyceride Quantification Kit (Abcam), Free Glycerol Reagent (Sigma) and Glycerol Standard Solution (Sigma), and Free Fatty Acid Quantification Kit (MAK044, Sigma), respectively according to manufacturer's instructions.
[…]. Tissues were homogenized and sonicated in homogenization buffer (1 N HCl, 1 mM EDTA, 4 mM Sodium metabisulfite), and cellular debris were pelleted by centrifugation at 20,000 g for 10 min at 4° C.). All tissue samples were normalized to total tissue protein concentration.
(§2) After 3 weeks of HFD exposure and treatment, mice were either acclimated to tracking cages for 1 week before starting the 72 h locomotion measurements using the LabMaster tracking system (TSE Systems; Bad Homburg); or filmed for 20-30 min, with a ZEISS optics camera, 1 h post injection inside their normal housing cage, for assessment of total distance traveled. Footage-records were filtered using the video editor Avidemux (Avidemux 2.7.1) and 10 or 15 min distance computations were quantified using the TrackMate tracking plugin from Fiji (Fiji; Wisconsin-Madinson).

C57BL/6 mice [2] = experiment: Thermoregulation studies (thermography, rectal probe) during DIO; format: in vivo, mouse; details: 2 h post-injection
Description: All measurements were done in ad libitum fed mice 2 h post-injections. Rectal temperature was measured with an electronic thermometer (Precision). BAT and Tail thermographic pictures were taken using a Compact-Infrared-Thermal-Imaging-Camera (FLIR; West Mailing) and FLIR-Tools-Software (FLIR; West Mailing) to quantify local temperatures.

[3] = system: superior cervical ganglia sympathetic neurons from GCaMP3+ mice; experiment: Intracellular calcium imaging of ACh-stimulated sympathetic neurons; format: cell-based, mouse; details: 15 μM drug for 24 h; 10 μM ACh for 40 s
Description: For Ca^2+ experiments, sympathetic neurons obtained from GCaMP3^+ mice. […] At 7 DIV, coverslips with sympathetic neurons from GCaMP3^+ mice were mounted on an inverted microscope with epifluorescent optics (Axiovert 135TV, Zeiss) equipped with a xenon lamp (located at a Lambda DG-4 (Sutter Instrument) and band-pass filter of 450-490 nm wavelengths. Ca^2+ measurements were performed at 37° C., as reported in Jacob et al., 2014(33) Throughout the experiments the Ach was applied focally through a drug filled micropipette placed under visual guidance over a single neuronal cell. Drug release was performed by focal pressure (10 psi for 40 s) through a Toohey Spritzer pressure System Ile (Toohey Company). […] Images were obtained every 250 ms by exciting the preparations at 450-490 nm and the emission wavelength was set to 510 nm. Neurons were imaged with a cooled CCD camera (Photometrics CoolSNAP fx), processed and analysed using the software MetaFluor (Universal laging, West Chester, Pa.). Ca^2+ levels were recorded at the cell body of neurons (manually defined over the cell profile) in the field of view and variations were estimated as changes of the fluorescence signal over the baseline (ΔF/F0=[(Fpost−Frest)/Frest]).

C57BL/6 mice [4] = experiment: Faecal output and plasma triglycerides during HFD feeding; format: in vivo, mouse
Description: as §1
24 h faecal output was collected and weighed. The faeces were washed with 1×PBS and total triglyceride content was extracted by homogenization and boiling, for 2 cycles of 5 min, in 5% NP-40. Triglyceride content was measured using Triglyceride Quantification Kit (Abcam), according to manufacturer's instructions, and normalized to the weight of total faecal output.

C57BL/6 mice [5] = experiment: Acute behaviour and WAT NE content after single IP injection; format: in vivo, mouse
Description: NE levels were determined with an NE ELISA kit (Labor Diagnostika Nord GmbH). Tissues were homogenized and sonicated in homogenization buffer (1 N HCl, 1 mM EDTA, 4 mM Sodium metabisulfite), and cellular debris were pelleted by centrifugation at 20,000 g for 10 min at 4° C.). All tissue samples were normalized to total tissue protein concentration.
as §2

C57BL/6 mice [6] = experiment: Diet induced obesity, 10 weeks HFD with chronic treatment; format: in vivo, mouse
[7] = system: SCG sympathetic neurons from C57BL/6 mice; experiment: Whole cell patch-clamp electrophysiology of sympathetic neurons
Slc6a2 = biological target: T1, Slc6a2 (Mus musculus, UniProt O55192); experiment: NE uptake by SAMs in SCG explant cultures, SLC6A2 blocker; format: cell-based; details: 100 nM Nisoxetine hydrochloride
T1 construct: CD45.2+F4/80+ cells isolated from the SCG of either B6 or Slc6a2−/− mice; from tissue; sorted CD45+F4/80+ sympathetic neuron-associated macrophages (sympathetic neurons are also present)

MAOa = biological target: T2, MAOa (Mus musculus, UniProt Q64133); experiment: NE content of SAMs and medium in SCG explant cultures, MAOA blocker; format: cell-based; details: ACh-activated SCG explants; 100 μM Clorgyline, 2 hours
T2 construct: CD45.2+F4/80+ cells isolated from the SCG of either B6 or Slc6a2−/− mice; from tissue; sorted CD45+F4/80+ SAMs (neuronal MAOa may also contribute to NE in the medium)
T2 sequence (Q64133 1-526): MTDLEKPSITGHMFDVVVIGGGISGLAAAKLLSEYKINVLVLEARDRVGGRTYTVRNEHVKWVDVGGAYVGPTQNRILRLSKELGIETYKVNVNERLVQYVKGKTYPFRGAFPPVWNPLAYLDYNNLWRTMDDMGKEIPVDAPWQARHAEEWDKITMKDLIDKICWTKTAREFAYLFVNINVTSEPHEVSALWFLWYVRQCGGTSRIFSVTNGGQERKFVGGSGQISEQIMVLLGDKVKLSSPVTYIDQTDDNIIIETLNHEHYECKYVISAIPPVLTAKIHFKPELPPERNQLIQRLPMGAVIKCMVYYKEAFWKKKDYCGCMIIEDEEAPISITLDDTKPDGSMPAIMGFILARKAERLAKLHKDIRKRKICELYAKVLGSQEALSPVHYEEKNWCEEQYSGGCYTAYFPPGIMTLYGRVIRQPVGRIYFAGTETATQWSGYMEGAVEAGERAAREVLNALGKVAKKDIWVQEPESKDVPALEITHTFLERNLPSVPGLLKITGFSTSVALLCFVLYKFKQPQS
Description: SCG were removed from 4-6 weeks old mice under a stereomicroscope and placed in Dulbecco's Modified Eagle's medium (DMEM, Invitrogen, Carlsbad, Calif., U.S.A.). Ganglia were cleaned from the surrounding tissue capsule and transferred into 8-well Tissue Culture Chambers (Sarstedt, Nümbrecht, Germany) that were previously coated with poly-D-lysine (Sigma/Aldrich, Steinheim, Germany) in accordance to the manufacturers instructions. Ganglia were then covered with 5 μl of Matrigel (BD Bioscience, San Jose, Calif., U.S.A.) and incubated for 7 min at 37° C. DMEM without phenol red (Invitrogen) supplemented with 10% fetal bovine serum (Invitrogen), 2 mM L-Glutamine (Biowest, Nuaillé, France) and nerve growth factor (Sigma/Aldrich) were subsequently added. 12 SCG explants cultures were prepared per condition. SCG ganglia were cultured for minimum 24 hours prior to further manipulation. […]
Depolarization of sympathetic neurons in TH-Cre/LSLChR2-YFP explant cultures were performed on a Yokogawa CSUX Spinning Disk confocal using the 488 nm laser line and pointing at the region of interest (ROI) for 200 μs. […] NE in the SCG explant culture medium and sorted CD45, F4/80-double positive cells was determined with NE ELISA kit (Labor Diagnostika Nord GmbH, Nordhorn, Germany, cat # BA E-5200). […]

[8] = fed-state, 2 h post-injection without access to food

T1 sequence (O55192 whole entry): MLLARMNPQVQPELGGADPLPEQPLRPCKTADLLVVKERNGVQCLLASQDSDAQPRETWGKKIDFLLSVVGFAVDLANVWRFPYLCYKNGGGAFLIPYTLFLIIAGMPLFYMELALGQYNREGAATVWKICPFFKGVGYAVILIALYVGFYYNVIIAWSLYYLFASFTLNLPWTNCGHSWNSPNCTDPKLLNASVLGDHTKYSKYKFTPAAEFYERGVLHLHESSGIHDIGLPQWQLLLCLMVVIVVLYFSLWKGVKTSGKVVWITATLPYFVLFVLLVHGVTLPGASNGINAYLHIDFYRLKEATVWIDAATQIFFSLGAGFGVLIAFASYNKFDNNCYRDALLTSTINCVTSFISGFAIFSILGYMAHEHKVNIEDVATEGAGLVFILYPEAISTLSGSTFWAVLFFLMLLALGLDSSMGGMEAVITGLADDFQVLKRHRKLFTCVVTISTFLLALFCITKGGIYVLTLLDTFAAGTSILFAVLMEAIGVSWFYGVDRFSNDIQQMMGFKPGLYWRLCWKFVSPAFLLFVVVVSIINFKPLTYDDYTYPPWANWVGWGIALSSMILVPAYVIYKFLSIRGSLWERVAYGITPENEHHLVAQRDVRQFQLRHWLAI

Compound: CC(N)Cc1ccccc1 (centres unmarked) [AMPH, Amphetamine]
- NE content in inguinal WAT ([1]; Control mice): 2.58±0.28 ng/mg of total tissue protein
- BW gain ([1]; Control mice): 12.67±1.79%
- Locomotor activity, total distance traveled ([1]; Control mice): 21.88±1.09 m
- Plasma Glycerol levels ([1]; Control mice): 89.70 ± 10.20 µg/mL
- Food intake ([1]; Control mice): 2.08 ± 0.25 g/day
- NE content in inguinal WAT ([1]; Symp mice): 1.51 ± 0.20 ng/mg
- BW gain ([1]; Symp mice): 39.19±4.54%
- Locomotor activity, total distance traveled ([1]; Symp mice): 24.30±2.88 m
- Plasma Glycerol levels ([1]; Symp mice): 59.07 ± 7.83 µg/mL
- Food intake ([1]; Symp mice): 2.00 ± 0.12 g/day
- Core body temperature (rectal probe) (C57BL/6 mice [2]; fourth week of HFD): 37.94±0.10 °C
- Tail temperature at the tail base (thermography) (C57BL/6 mice [2]; fourth week of HFD): 30.07±0.54 °C
- BAT temperature (thermography) (C57BL/6 mice [2]; HFD fed mice, fourth week): 38.25±0.25 °C
- ACh-induced intracellular [Ca2+] increase, ΔF/F0 [3]: 1.71±0.05
- Total 24 h faecal output (C57BL/6 mice [4]; HFD feeding): 0.48 ± 0.03 g
- Faecal triglycerides (TGs) levels (C57BL/6 mice [4]; HFD feeding, per mg of faeces): 1.89 ± 0.15 nmol/mg
- Plasma TGs levels (C57BL/6 mice [4]; [8]): 3.48 ± 0.01 µmol/mL
- Locomotion, total distance traveled (C57BL/6 mice [5]; 15-min video-tracking, 1 h post-injection): 70.45±7.54 m
- NE content in iWAT (C57BL/6 mice [5]; 2 h post-injection): 9.69 ± 1.49 ng/mg
- NE content in gWAT (C57BL/6 mice [5]; 2 h post-injection, per total tissue protein): 6.63 ± 0.58 ng/mg
- Food intake (C57BL/6 mice [5]; 24 h post-injection, 0.12 mol/kg IP): 2.57 ± 0.15 g
- Locomotor activity (C57BL/6 mice [6]; (a.u.), fourth week of HFD): 53.72±5.27 counts/day
- NE levels in the liver (C57BL/6 mice [6]; HFD fed, per total protein): 1.327 ± 0.262 ng/mg
- NE levels in the muscle (C57BL/6 mice [6]; HFD fed, per total protein): 0.493 ± 0.030 ng/mg
- iWAT adipocyte size (C57BL/6 mice [6]; after 10 weeks of HFD): 1152.0±58.9 μm^2
- iWAT weight, % of total BW (C57BL/6 mice [6]; after 10 weeks of HFD): 0.92±0.13%
- NE content in iWAT (C57BL/6 mice [6]; after 10 weeks of HFD and treatment, per total protein): 1.166 ± 0.263 ng/mg
- BW gain (C57BL/6 mice [6]; after 10 weeks of HFD, 0.12 mol/kg daily IP): 20.49±2.10%
- Daily food intake (C57BL/6 mice [6]; during HFD and treatment): 2.17 ± 0.09 g/day
- Circulating plasma insulin levels (C57BL/6 mice [6]; [8]): 0.582 ± 0.020 ng/mL
- Plasma Free Fatty Acids (C57BL/6 mice [6]; [8]): 0.766 ± 0.043 µmol/mL
- Plasma Glycerol (C57BL/6 mice [6]; [8]): 11.771 ± 1.249 µmol/mL
- TGs content in muscle (C57BL/6 mice [6]; per total protein): 11.54 ± 0.17 µmol/mg
- TGs content in the liver (C57BL/6 mice [6]; per total protein): 16.23 ± 1.95 µmol/mg
- Resting membrane potential [7]: −35.70±1.02 mV
- Changes in resting membrane potential ([7]; AMPH vs Vehicle, FIGS. 5A, B): no significant changes
- Maximum firing frequency ([7]; current-clamp mode): 37.60±1.07 Hz and 41.00±1.43 Hz

Compound: CNCCC(Oc1ccccc1OC)c1ccccc1 (centres unmarked) [Nisoxetine, Nisoxetine hydrochloride]
- NE accumulation in SAMs (Slc6a2; ACh-activated SCG explants, 2 hours): prevented NE accumulation in SAMs
- Uptake of NE by SAMs (NE content in CD45+F4/80+ cells) (Slc6a2; optogenetic stimulation of SCG explants): prevented

Compound: C#CCN(C)CCCOc1ccc(Cl)cc1Cl [clorgyline, Clorgyline]
- Intracellular NE levels in SAMs (MAOa): nearly double intracellular NE levels
- NE levels in medium (MAOa): increased NE levels in medium
